Reference: US12486254B2, “Uracil derivatives for stimulating read-through of premature termination codons” (Southern Research Institute, priority 2022, dated 2025)
pEC50: −log10 of the molar value. Several values for one entry are separate records, joined by “and”; a condition that tells them apart may be missing. Equal entries are not always repeated.

How the values were obtained:
G542X#10-HBE5x5 = assay: Read-through of a premature termination codon, G542X#10-HBE5x5 (Table 3); format: cell-based; conditions: with G418
Experimental: (§1) The compounds shown in Table 1 were evaluated for their ability to stimulate read-through of a premature termination codon, and their respective activities are shown in Tables 2 and 3 below.

W134X-CF#14 FRT = assay: Read-through of a premature termination codon, W134X-CF#14 FRT data, with G418; format: cell-based; conditions: in presence of G418
Experimental: as §1

| pEC50 (G542X#10-HBE5x5) | pEC50 (W134X-CF#14 FRT) | Structure (SMILES) |
| --- | --- | --- |
| ≤ 4.00 | 3.96 | CCn1c(=O)c(C(=O)CN(C)Cc2ccc(C(=O)NC)cc2)c(N)n(Cc2ccccc2)c1=O [1.2] |
| ≤ 4.00 | 4.64 | CCn1c(=O)c(C(=O)CN2CCC(c3ccccc3)C2)c(N)n(Cc2ccccc2)c1=O (stereo not shown) [1.3] |
| ≤ 4.00 | 4.00 | CCn1c(=O)c(C(=O)CN2CCN(c3ncccn3)CC2)c(N)n(Cc2ccccc2)c1=O [1.4] |
| ≤ 4.00 | 4.49 | CCn1c(=O)c(C(=O)CN2CCc3cc(F)ccc3C2)c(N)n(Cc2ccccc2)c1=O [1.7] |
| ≤ 4.00 | 3.78 | CCn1c(=O)c(C(=O)CNCC2CCCCO2)c(N)n(Cc2ccccc2)c1=O (stereo not shown) [1.8] |
| ≤ 4.00 | 4.34 | CCn1c(=O)c(C(=O)CN2CCCC2C(=O)OC)c(N)n(Cc2ccccc2)c1=O (stereo not shown) [1.12] |
| ≤ 4.00 | 4.91 | CCn1c(=O)c(C(=O)CNCc2ccccc2)c(N)n(Cc2ccccc2)c1=O [1.14] |
| ≤ 4.00 | 4.08 | CCOC(=O)C1CCCCN1CC(=O)c1c(N)n(Cc2ccccc2)c(=O)n(CC)c1=O (stereo not shown) [1.22] |
| ≤ 4.00 | 4.64 | CCn1c(=O)c(C(=O)CN2CCC[C@@H]2C(=O)OC)c(N)n(Cc2ccccc2)c1=O [1.24] |
| 4.21 | 4.93 | CCn1c(=O)c(C(=O)CNc2nc3ccccc3[nH]2)c(N)n(Cc2ccccc2)c1=O [1.29] |
| 4.04 | 4.17 | CCn1c(=O)c(C(=O)CN(Cc2ccccc2)C2CCCCC2)c(N)n(Cc2ccccc2)c1=O [1.30] |
| ≤ 4.00 | 4.03 | CCN(CC(N)=O)CC(=O)c1c(N)n(Cc2ccccc2)c(=O)n(CC)c1=O [1.36] |
| 4.30 | 5.50 | NC(=O)[C@H]1CCCCN1CC(=O)c1c(N)n(Cc2ccc(F)cc2)c(=O)n(Cc2ccc(F)cc2)c1=O [1.47, (2R)-1-[2-[4-amino-1,3-bis[(4-fluorophenyl)methyl]-2,6-dioxo-pyrimidin-5-yl]-2-oxo-ethyl]piperidine-2-carboxamide] |
| ≤ 4.00 | ≤ 4.00 | CCn1c(=O)c(C(=O)CN2CCOCC2C(N)=O)c(N)n(Cc2ccccc2)c1=O (stereo not shown) [1.53] |
| ≤ 4.00 | ≤ 4.00 | CCn1c(=O)c(C(=O)CN(Cc2ncco2)C(C)C)c(N)n(Cc2ccccc2)c1=O [1.56] |
| ≤ 4.00 | 4.81 | CCn1c(=O)c(C(=O)CN(Cc2ncc[nH]2)C(C)C)c(N)n(Cc2ccccc2)c1=O [1.57] |
| ≤ 4.00 | 4.25 | CCn1c(=O)c(C(=O)CN2CCCCC2c2nc(C)no2)c(N)n(Cc2ccccc2)c1=O (stereo not shown) [1.86] |
| ≤ 4.00 | 4.23 | CCn1c(=O)c(C(=O)CN2CCCCC2C(=O)N2CCN(C)CC2)c(N)n(Cc2ccccc2)c1=O (stereo not shown) [1.96] |
| 5.15 | 5.34 | NC(=O)C1CCCCN1CC(=O)c1c(N)n(Cc2ccc(Cl)cc2)c(=O)n(Cc2ccc(Cl)cc2)c1=O (stereo not shown) [1.107] |
| ≤ 4.00 | 5.46 | CCn1c(=O)c(C(=O)CN2CCCCC2C(N)=O)c(N)n(Cc2cccs2)c1=O (stereo not shown) [1.112] |
| ≤ 4.00 | 5.24 | CCn1c(=O)c(C(=O)CN2CCCCC2C(=O)N(C)C)c(N)n(Cc2cccs2)c1=O (stereo not shown) [1.113] |
| ≤ 4.00 | 5.33 | CCn1c(=O)c(C(=O)CN2CCC(C)CC2C(N)=O)c(N)n(Cc2ccc(F)cc2)c1=O (stereo not shown) [1.131] |
| ≤ 4.00 | 4.10 | CCn1c(=O)c(C(=O)CNC(C)C)c(N)n(Cc2ccc(F)cc2)c1=O [1.138, 6-amino-3-ethyl-1-[(4-fluorophenyl)methyl]-5-[2-(isopropylamino)acetyl]pyrimidine-2,4-dione] |
| ≤ 4.00 | 5.20 | NC(=O)C1CCCCN1CC(=O)c1c(N)n(Cc2ccc(F)cc2)c(=O)n(CC2CCC2)c1=O (stereo not shown) [1.140] |
| 4.38 | 5.49 | CCn1c(=O)c(C(=O)CN(CC(N)=O)C(C)C)c(N)n(Cc2ccc(F)cc2F)c1=O [1.149] |

| pEC50 (G542X#10-HBE5x5) | pEC50 (W134X-CF#14 FRT) | Structure (SMILES) |
| --- | --- | --- |
| 4.60 | 5.50 | Nc1c(C(=O)CN2CCCC[C@@H]2C(=O)N2CCCCC2)c(=O)n(Cc2ccc(F)cc2)c(=O)n1Cc1ccc(F)cc1 [1.152] |
| ≤ 4.00 | 5.59 | CCn1c(=O)c(C(=O)CN2CCCC[C@@H]2C(=O)NCC2CC2)c(N)n(Cc2ccccc2)c1=O [1.158] |
| ≤ 4.00 |  | CCn1c(=O)c(C(=O)CN2CCCCC2C(N)=O)c(N)n(Cc2ccc(F)c(OC)c2)c1=O (stereo not shown) [1.164] |
| ≤ 4.00 |  | CCn1c(=O)c(C(=O)CN2CCCC[C@@H]2C(=O)N2CCC(F)(F)CC2)c(N)n(Cc2ccc(F)cc2)c1=O [1.168] |
| ≤ 4.00 |  | CCn1c(=O)c(C(=O)CN2CCCC[C@@H]2C(=O)NCC2CC2)c(N)n(Cc2ccc(F)cc2)c1=O [1.174] |
| 4.14 |  | CCn1c(=O)c(C(=O)CNC(COC)c2ccccc2)c(N)n(Cc2ccc(F)cc2)c1=O (stereo not shown) [1.180] |
| ≤ 4.00 |  | CCn1c(=O)c(C(=O)CNC(CN2CCCC2=O)c2ccccc2)c(N)n(Cc2ccc(F)cc2)c1=O (stereo not shown) [1.181] |
| ≤ 4.00 |  | CCn1c(=O)c(C(=O)CN[C@H](C(N)=O)C(C)C)c(N)n(Cc2ccc(F)cc2)c1=O [1.187] |
| ≤ 4.00 |  | CCn1c(=O)c(C(=O)CN(C)C)c(N)n(Cc2cc(Cl)c(F)cc2F)c1=O [1.198] |
| ≤ 4.00 |  | CCn1c(=O)c(C(=O)CNCCC(N)=O)c(N)n(Cc2ccc(F)cc2)c1=O [1.201] |
| ≤ 4.00 |  | CCn1c(=O)c(C(=O)CN2CCNC(=O)C2)c(N)n(Cc2ccc(F)cc2)c1=O [1.209] |
| ≤ 4.00 |  | CCn1c(=O)c(C(=O)CN2CCCNC2=O)c(N)n(Cc2ccc(F)cc2)c1=O [1.212] |
| ≤ 4.00 |  | CCn1c(=O)c(C(=O)CN2CCCN(C)C2=O)c(N)n(Cc2ccc(F)cc2)c1=O [1.215] |
| ≤ 4.00 |  | CCn1c(=O)c(C(=O)CN2CCN(C)C(=O)C2)c(N)n(Cc2ccc(F)cc2)c1=O [1.216] |
| ≤ 4.00 |  | CCn1c(=O)c(C(=O)CN2CCCC[C@@H]2C(N)=O)c(N)n(Cc2ccc(O)cc2)c1=O [1.217] |
| ≤ 4.00 |  | NC(=O)[C@H]1CCCCN1CC(=O)c1c(N)n(Cc2ccc(F)cc2)c(=O)n(CC2CC2)c1=O [1.218] |
| 4.31 |  | CCn1c(=O)c(C(=O)CN(c2cccc(C(N)=O)c2)C(C)C)c(N)n(Cc2ccc(F)cc2)c1=O [1.219] |
| ≤ 4.00 |  | CCn1c(=O)c(C(=O)CN2CCc3cccc(C(=O)OC)c3C2)c(N)n(Cc2ccc(F)cc2)c1=O [1.220] |
| ≤ 4.00 |  | CCn1c(=O)c(C(=O)CN2CCC(O)CC2C(N)=O)c(N)n(Cc2ccc(F)cc2)c1=O (stereo not shown) [1.221] |
| ≤ 4.00 |  | CCn1c(=O)c(C(=O)CN2CCc3cccc(C(N)=O)c3C2)c(N)n(Cc2ccc(F)cc2)c1=O [1.222] |
| ≤ 4.00 |  | CCn1c(=O)c(C(=O)CN2CCCc3c(C(N)=O)cccc32)c(N)n(Cc2ccc(F)cc2)c1=O [1.223] |
| ≤ 4.00 |  | CCn1c(=O)c(C(=O)CN2CCCc3ccc(C(N)=O)cc32)c(N)n(Cc2ccc(F)cc2)c1=O [1.224] |
| ≤ 4.00 |  | CCn1c(=O)c(C(=O)CNC2CCC(=O)NC2=O)c(N)n(Cc2ccc(F)cc2)c1=O (stereo not shown) [1.226] |
| ≤ 4.00 |  | CCn1c(=O)c(C(=O)CNc2ccc(C)cc2)c(N)n(Cc2ccc(F)cc2)c1=O [1.227] |
| ≤ 4.00 |  | NC(=O)C1CCCCN1CC(=O)c1c(N)n(Cc2ccc(F)cc2)c(=O)n(CCC(=O)O)c1=O (stereo not shown) [1.228] |

| pEC50 (G542X#10-HBE5x5) | pEC50 (W134X-CF#14 FRT) | Structure (SMILES) |
| --- | --- | --- |
| ≤ 4.52 |  | CCn1c(=O)c(C(=O)CN2CCCC[C@H]2C(N)=O)c(N)n(Cc2ccc(F)cc2)c1=O [2.1] |
| ≤ 4.52 |  | CCn1c(=O)c(C(=O)CN2CCCC[C@@H]2C(=O)OC)c(N)n(Cc2ccc(F)cc2)c1=O [2.2] |
| ≤ 4.52 |  | CCn1c(=O)c(C(=O)CN2CCCC[C@@H]2C(N)=O)c(N)n(Cc2ccccc2F)c1=O [2.3] |
| ≤ 4.52 |  | CCN(CC)C(=O)[C@H]1CCCCN1CC(=O)c1c(N)n(Cc2ccc(F)cc2)c(=O)n(CC)c1=O [2.4] |
| ≤ 4.52 |  | CCn1c(=O)c(C(=O)CN2CCCC[C@@H]2C(=O)N2CCCC2)c(N)n(Cc2ccc(F)cc2)c1=O [2.5] |
| ≤ 4.52 |  | CCn1c(=O)c(C(=O)CN2CCCC[C@@H]2C(=O)NC)c(N)n(Cc2ccc(F)cc2)c1=O [2.6] |
| ≤ 4.52 |  | CCn1c(=O)c(C(=O)CN2CCCC[C@@H]2C(N)=O)c(N)n(CCc2ccc(F)cc2)c1=O [2.7] |
| ≤ 4.52 |  | CCn1c(=O)c(C(=O)CN2CCCC[C@@H]2C(N)=O)c(N)n(Cc2cccc(C)n2)c1=O [2.8] |
| ≤ 4.52 |  | CCn1c(=O)c(C(=O)CN2CCCC[C@@H]2C(N)=O)c(N)n(Cc2cccc(F)c2)c1=O [2.10] |
| ≤ 4.52 and 4.74 |  | CCn1c(=O)c(C(=O)CN2CCCC[C@@H]2C(N)=O)c(N)n(Cc2ccc(F)cc2F)c1=O [2.11] |
| ≤ 4.52 |  | CCn1c(=O)c(C(=O)CN2CCCC[C@@H]2C(N)=O)c(N)n(Cc2ccc(C(F)F)cc2)c1=O [2.12] |
| ≤ 4.52 |  | CC(C)n1c(=O)c(C(=O)CN2CCCC[C@@H]2C(N)=O)c(N)n(Cc2ccc(F)cc2)c1=O [2.13] |
| ≤ 4.52 |  | CCn1c(=O)c(C(=O)CN2CCCC[C@@H]2C(N)=O)c(N)n(Cc2ccc(OC(C)C)cc2)c1=O [2.14] |
| ≤ 4.52 |  | CCn1c(=O)c(C(=O)CN2CCCC[C@@H]2C(N)=O)c(N)n(Cc2nccn2C)c1=O [2.15] |
| ≤ 4.52 |  | CCn1c(=O)c(C(=O)CN2CCCC[C@@H]2C(N)=O)c(N)n(-c2cccc(F)c2)c1=O [2.16] |
| ≤ 4.52 |  | CCn1c(=O)c(C(=O)CN2CCCC[C@@H]2C(N)=O)c(N)n(Cc2ccc(F)c(Cl)c2)c1=O [2.17] |
| ≤ 4.52 |  | CCn1c(=O)c(C(=O)CN2CCCC[C@@H]2C(N)=O)c(N)n(Cc2ccc(Cl)c(F)c2)c1=O [2.18] |
| ≤ 4.52 |  | CCn1c(=O)c(C(=O)CN(C(C)C)C(C)(C)C(N)=O)c(N)n(Cc2ccc(F)cc2)c1=O [2.19] |
| ≤ 4.52 |  | CCn1c(=O)c(C(=O)CN2CCCC[C@@H]2C(N)=O)c(N)n(Cc2ccc(C#N)c(F)c2)c1=O [2.20] |
| ≤ 4.52 |  | CCn1c(=O)c(C(=O)CN2CCCC[C@@H]2C(N)=O)c(N)n(Cc2ccc(F)nc2)c1=O [2.21] |
| ≤ 4.52 |  | CCn1c(=O)c(C(=O)CN2CCCC[C@@H]2C(N)=O)c(N)n(Cc2ccc(F)cn2)c1=O [2.22] |
| ≤ 4.52 |  | CCn1c(=O)c(C(=O)CN2CCCC[C@@H]2C(N)=O)c(N)n(Cc2ccc(C#N)cc2F)c1=O [2.23] |
| ≤ 4.52 |  | CCn1c(=O)c(C(=O)CN2CCCC[C@@H]2C(N)=O)c(N)n(Cc2ccc(C(F)(F)F)nc2)c1=O [2.24] |
